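Exposure lasted 48 hours, with cells grown in 96-well plates and compounds tested at five concentrations. TGI marks complete inhibition of growth.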
Assays:
Assay in all cases: NCI tumour cell line growth inhibition, 48 h
[1] = test system: HOP-18 NSCLC
[2] = test system: LXFL 529 NSCLC
[3] = test system: SNB-78 CNS
[4] = test system: DLD-1 colon
[5] = test system: RXF-631 renal
[6] = test system: XF 498 CNS
[7] = test system: P388 leukemia
[8] = test system: SN12K1 renal

In the case of `CC(=O)OC(CCC1(C)OC1COc1ccc(CCNC(=O)c2ccccc2)cc1)C(C)(C)OC(C)=O` (centres undefined), the TGI [1] is reported as over 100 µM, the TGI [2] is reported as 34.6 µM and the TGI [3] is reported as over 100 µM. The TGI [4] was over 100 µM.

Molecule `CCOC(=O)C1=C(C)N(c2ccc(C)cc2)C2=C(C(=O)N(c3ccccc3)C2c2ccccc2)C1c1ccccc1` (centres undefined) has a TGI [5] of over 25 µM, a TGI [6] of over 25 µM and a TGI [2] of over 25 µM. For the same molecule, the TGI [4] was over 25 µM.

`Cc1c2cnccc2c(C)c2c1c1ccccc1n2CCCCCCNCc1ccccc1` showed a TGI [1] of 0.923 µM, a TGI [6] of 4.37 µM and a TGI [7] of 732 nM. It also gave a TGI [3] of 5.08 µM, a TGI [4] of 2.92 µM and a TGI [8] of 1900 nM.

`CN1CCC(CN2c3ccccc3Sc3ccccc32)CC1` gave a TGI [1] of 27.5 µM, a TGI [6] of 23.9 µM and a TGI [2] of 27.5 µM. It also gave a TGI [3] of 30 µM and a TGI [4] of 28.3 µM.

For `CCC1CN2CCc3c([nH]c4ccccc34)C2C[C@@H]1CC(=O)N(C)C` (some centres undefined), the TGI [1] was over 100 µM, the TGI [6] was over 100 µM and the TGI [2] was over 100 µM. For the same molecule, the TGI [3] was over 100 µM and the TGI [4] was over 100 µM.

— PubChem BioAssay (NCI)
